Results from patent US7476401B2, “Protein and peptide delivery to mammalian cells in vitro” (Mirus Bio LLC, priority 2003, dated 2009).

System: HeLa cells
Experiment: Protein delivery to HeLa cells, visualized by fluorescence confocal microscopy
Assay type: cell-based
Conditions: technique #2, FIG. 2B
Experimental: HeLa cells were maintained in DMEM containing 10% fetal bovine serum. For polypeptide delivery, cells were plated in 6-well plates containing glass cover slips at a density of 50,000-100,000 cells per well and grown for 24-48 hours before incubation with polypeptide formulations.
Two different techniques were used for contacting polypeptide formulations with cells. In both techniques, cells were grown to 30-70% confluency and washed once with 2 ml 37° C. PBS prior to addition of polypeptide formulations.
Technique #1: Peptide formulations were diluted by addition of 150 μl 37° C. PBS (180-200 μl total volume). Formulations were than added to cells on cover slips. Following a 5 min incubation at room temperature (RT) 0.8 ml 37° C. DMEM was added to each well and cells were again incubated for 5 min at RT. Media was then aspirated off cells and 2.0 ml DMEM containing 10% bovine serum was added. […]
Visualization of polypeptide delivery to cells: In order to visually analyze polypeptide delivery, cells were washed 3× with PBS, fixed for 30 min at 4° C. in PBS containing 4% formaldehyde and washed 3× with PBS. Cover slips were then mounted onto slides for fluorescence microscopy using a Zeiss LSM510 laser confocal microscope. Rhodamine was detected by exciting with a HeNe laser at 543 nm and detecting with a 560 nm long pass filter. […]

modification #26: Rhodamine-labeled Bovine Serum Albumin modified with chlorodimethyloctadecylsilane, dried, hydrated with PBS
uptake of modified protein by cells: uptake of BSA
